Reference: US20230128372A1 (EXCALIBUR MEDICINES LIMITED, priority 2020, published 2023)
pEC50: −log10 of the molar value.

Assays:
[1] = tested on: hospitalised diabetic patients with known or suspected COVID-19; conditions: 60 patients, test and control group combined (blinded); 12 deaths expected from Coronad study
rat glucokinase = molecular target: T1, rat glucokinase (Rattus norvegicus, UniProt P17712); conditions: read-out: EC50 activation of glucokinase; recombinant rat enzyme, in vitro; cited from earlier work
T1 sequence (P17712 1-465): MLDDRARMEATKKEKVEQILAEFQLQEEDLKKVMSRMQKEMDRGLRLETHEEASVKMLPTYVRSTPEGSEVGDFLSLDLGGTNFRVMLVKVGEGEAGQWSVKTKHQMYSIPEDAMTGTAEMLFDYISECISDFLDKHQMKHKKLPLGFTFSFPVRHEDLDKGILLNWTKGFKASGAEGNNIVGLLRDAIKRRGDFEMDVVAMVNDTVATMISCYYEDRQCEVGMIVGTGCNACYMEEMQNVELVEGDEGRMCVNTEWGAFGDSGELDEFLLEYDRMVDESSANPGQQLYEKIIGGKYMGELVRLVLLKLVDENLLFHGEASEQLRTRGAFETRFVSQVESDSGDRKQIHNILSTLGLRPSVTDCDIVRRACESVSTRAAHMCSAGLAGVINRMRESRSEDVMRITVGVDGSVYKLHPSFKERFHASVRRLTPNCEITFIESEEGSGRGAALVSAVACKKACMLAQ

human hepatocytes = conditions: cited from earlier work
rat hepatocytes = conditions: cited from earlier work
[2] = tested on: normo-glycaemic insulin resistant rats; conditions: dosed acutely and once daily for up to 28 days, rapid onset of action; cited from earlier work
diabetic mice = conditions: dosed acutely and once daily for up to 28 days, rapid onset of action; cited from earlier work
[3] = tested on: Japanese type 2 diabetic subjects; conditions: cited from earlier work
human glucokinase = human glucokinase (Homo sapiens, UniProt P35557); conditions: read-out: EC50 activation of glucokinase; recombinant human enzyme, in vitro; cited from earlier work
Sequence of human glucokinase (P35557 whole entry): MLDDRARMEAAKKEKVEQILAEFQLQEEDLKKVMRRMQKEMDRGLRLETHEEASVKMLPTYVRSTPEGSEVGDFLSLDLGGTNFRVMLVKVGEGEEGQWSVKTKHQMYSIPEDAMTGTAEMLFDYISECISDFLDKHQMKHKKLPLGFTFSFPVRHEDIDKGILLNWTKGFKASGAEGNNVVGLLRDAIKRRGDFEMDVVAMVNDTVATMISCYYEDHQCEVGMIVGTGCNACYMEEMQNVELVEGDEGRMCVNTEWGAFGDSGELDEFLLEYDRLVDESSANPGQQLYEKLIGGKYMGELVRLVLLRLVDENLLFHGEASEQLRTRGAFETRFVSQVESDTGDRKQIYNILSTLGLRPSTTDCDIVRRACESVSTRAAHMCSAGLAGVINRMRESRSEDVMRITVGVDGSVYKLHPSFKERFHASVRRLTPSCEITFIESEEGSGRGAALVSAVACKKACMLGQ

healthy animals = conditions: cited from earlier work
[4] = tested on: healthy, non-diabetic patients; conditions: doses of 40 mg or 80 mg; hypoglycaemia defined as 2.7 mmol/l; cited from earlier work

## COC[C@H](C)Oc1cc(Oc2cnc(C(=O)N3CCC3)cn2)cc(C(=O)Nc2cnc(C)cn2)c1 [AZD1656, 3-{[5-(Azetidin-1-ylcarbonyl)pyrazin-2-yl]oxy}-5-{[(1S)-1-methyl-2-(methyloxy)ethyl]oxy}-N-(5-methylpyrazin-2-yl)benzamide]
[1]
  deaths among patients who completed the trial protocol: 5
Rat glucokinase
  pEC50: 7.14
Human hepatocytes
  pEC50: 5.86
Rat hepatocytes
  pEC50: 6.33
[2]
  plasma glucose levels: reduces plasma glucose levels in a dose-dependent fashion
Diabetic mice
  plasma glucose levels: reduces plasma glucose levels in a dose-dependent fashion
[3]; BID at high (40-200 mg/day), medium (20-140 mg/day) and low (10-80 mg/day) doses over 4 months
  HbA1c and fasting plasma glucose (FPG) levels: found to lower HbA1c and fasting plasma blood (FPG) glucose levels
[3]; at 4 months
  change in HbA1c or FPG from baseline: no statistically significant change
[3]; between weeks 8 and 16
  time course of HbA1c/FPG effect: transient trending towards pre-dose levels
Human glucokinase
  pEC50: 7.24
Healthy animals; healthy animals, chronic toxicology studies
  changes in the liver, considered secondary to hypoglycaemia: loss of hepatocellular glycogen
Healthy animals; healthy animals, higher doses, up to 12 months
  chronic toxicology findings: severe hypoglycaemia at higher doses and sequalae such as Wallerian type nerve degeneration and skeletal muscle fibre degeneration
Healthy animals; preclinical studies of up to 12-month duration
  glucose lowering effect: potent glucose lowering effect
[4]
  hypoglycaemia: not to cause hypoglycaemia
